For 1 compound, Kd results are on record in publication PMC12540872 (Nature Communications, 2025).

In the assay the target is MMOH (hydroxylase of soluble methane monooxygenase, sMMO). Nature of the assay: isothermal titration calorimetry. The format is binding, Methylosinus trichosporium. As to conditions: enthalpically driven; surface site near K323 proposed. In general terms: In ITC the heat of successive injections is recorded.

In the case of `O=C1OC2(c3cc(I)c(O)c(I)c3Oc3c2cc(I)c(O)c3I)c2c(Cl)c(Cl)c(Cl)c(Cl)c21` [RB, rose bengal], the Kd is 9.23 ± 1.3 µM.

For orientation: Kd means a measure of binding affinity in units of concentration. A low value points to a tighter complex.
